Measured values from patent publication US8048892B2, “Azaquinolone based compounds exhibiting prolyl hydroxylase inhibitory activity, compositions, and uses thereof” (Amgen Inc., priority 2006, dated 2011).
Structures can show the parent of a compound that is named as a salt.

These compounds were tested against HIF PHD2 (Homo sapiens, UniProt Q9GZT9) (assay: PHD2 inhibition assay (TR-FRET, VCB-Eu detection of hydroxylated P564-HIF1α peptide)). Conditions: 2 nM PHD2, 100 nM P564-HIF1α peptide, 0.25 μM 2-oxoglutarate.
HIF PHD2, sequence (Q9GZT9 whole entry): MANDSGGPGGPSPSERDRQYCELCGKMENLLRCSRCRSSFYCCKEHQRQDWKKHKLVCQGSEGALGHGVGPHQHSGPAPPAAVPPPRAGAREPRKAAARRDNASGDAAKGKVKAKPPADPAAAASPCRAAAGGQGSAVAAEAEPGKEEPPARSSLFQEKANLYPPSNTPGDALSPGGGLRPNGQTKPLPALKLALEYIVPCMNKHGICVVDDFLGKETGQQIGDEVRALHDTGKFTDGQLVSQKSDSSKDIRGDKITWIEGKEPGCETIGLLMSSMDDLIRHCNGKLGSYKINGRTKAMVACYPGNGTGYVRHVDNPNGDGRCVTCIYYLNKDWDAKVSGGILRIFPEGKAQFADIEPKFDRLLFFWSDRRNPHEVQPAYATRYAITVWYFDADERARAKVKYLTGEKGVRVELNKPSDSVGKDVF
Format: biochemical
Outline: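 Human PHD2 (2 nM final) preincubated 1 h at room temperature with compound and 100 μM FeCl2 in pH 6 MES buffer, 5% DMSO final. Reaction with 100 nM biotinylated P564-HIF1α peptide, 2 mM ascorbate and 0.25 μM 2-oxoglutarate for 1 h, stopped with succinate. Hydroxylation read by TR-FRET (VCB-Eu/streptavidin-APC, 655/615 nm); IC50 from 4-parameter fit of percent of control.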
For CN1CCC(c2cc3c(O)c(C(=O)NCC(=O)O)c(=O)n(C)c3cn2)CC1 [Example 117, 2-(4-Hydroxy-1-methyl-6-(1-methylpiperidin-4-yl)-2-oxo-1,2-dihydro-1,7-naphthyridine-3-carboxamido)acetic acid, Trifluoroacetic acid salt], the IC50 was < 50 nM. For CC(=O)N1CC=C(c2cc3c(O)c(C(=O)NCC(=O)O)c(=O)n(C)c3cn2)CC1 [Example 118, 2-(6-(1-Acetyl-1,2,3,6-tetrahydropyridin-4-yl)-4-hydroxy-1-methyl-2-oxo-1,2-dihydro-1,7-naphthyridine-3-carboxamido)acetic acid, Trifluoroacetic acid salt], the IC50 was < 50 nM. For CC(=O)N1CCC(c2cc3c(O)c(C(=O)NCC(=O)O)c(=O)n(C)c3cn2)CC1 [Example 119, 2-(6-(1-Acetylpiperidin-4-yl)-4-hydroxy-1-methyl-2-oxo-1,2-dihydro-1,7-naphthyridine-3-carboxamido)acetic acid, Trifluoroacetic acid salt], the IC50 was < 50 nM. Cn1c(=O)c(C(=O)NCC(=O)O)c(O)c2cc(N3CCOCC3)ncc21 [Example 120, 2-(4-Hydroxy-1-methyl-6-morpholino-2-oxo-1,2-dihydro-1,7-naphthyridine-3-carboxamido)acetic acid, Trifluoroacetic acid salt] was tested, and the IC50 was < 50 nM. Work on Cn1c(=O)c(C(=O)NCC(=O)O)c(O)c2cc(N3CCCCC3)ncc21 [Example 121, 2-(4-Hydroxy-1-methyl-2-oxo-6-(piperidin-1-yl)-1,2-dihydro-1,7-naphthyridine-3-carboxamido)acetic acid, Trifluoroacetic acid salt] yielded an IC50 of 50 to 100 nM. CN1CCN(c2cc3c(O)c(C(=O)NCC(=O)O)c(=O)n(C)c3cn2)CC1 [Example 122, 2-(4-Hydroxy-1-methyl-6-(4-methylpiperazin-1-yl)-2-oxo-1,2-dihydro-1,7-naphthyridine-3-carboxamido)acetic acid, Trifluoroacetic acid salt] gave an IC50 of 100 to 500 nM. In the case of Cn1c(=O)c(C(=O)NCC(=O)O)c(O)c2cc(Cl)[n+]([O-])cc21 [Example 123, 2-(6-Chloro-4-hydroxy-1-methyl-2-oxo-1,2-dihydro-1,7-naphthyridine-3-carboxamido)acetic acid, N-oxide], the IC50 is reported as < 50 nM. For Cn1c(=O)c(C(=O)NCC(=O)O)c(O)c2cc(-c3ccccc3)nc(C(F)(F)F)c21 [Example 124, 2-(4-Hydroxy-1-methyl-2-oxo-6-phenyl-8-(trifluoromethyl)-1,2-dihydro-1,7-naphthyridine-3-carboxamido)acetic acid], the IC50 was 100 to 500 nM. With Cc1ccccc1-c1cc2c(O)c(C(=O)NCC(=O)O)c(=O)n(C)c2c(C(F)(F)F)n1 [Example 125, N-((4-Hydroxy-1-methyl-6-(2-methylphenyl)-2-oxo-8-(trifluoromethyl)-1,2-dihydro-1,7-naphthyridin-3-yl)carbonyl)glycine] the IC50 was < 50 nM. Cn1c(=O)c(C(=O)NCC(=O)O)c(O)c2ccnc(Cl)c21 [Example 126, 2-(8-Chloro-4-hydroxy-1-methyl-2-oxo-1,2-dihydro-1,7-naphthyridine-3-carboxamido)acetic acid] was tested, and the IC50 was 50 to 100 nM. With Cn1c(=O)c(C(=O)NCC(=O)O)c(O)c2ccnc(C(F)(F)F)c21 [Example 127, 2-(4-Hydroxy-1-methyl-2-oxo-8-(trifluoromethyl)-1,2-dihydro-1,7-naphthyridine-3-carboxamido)acetic acid] the IC50 was < 50 nM. With Cn1c(=O)c(C(=O)NCC(=O)O)c(O)c2ccnc(-c3ccccc3)c21 [Example 128, 2-(4-Hydroxy-1-methyl-2-oxo-8-phenyl-1,2-dihydro-1,7-naphthyridine-3-carboxamido)acetic acid] the IC50 was < 50 nM. For Cn1c(=O)c(C(=O)NCC(=O)O)c(O)c2c(NCC(=O)O)nccc21 [Example 129, 2-{4-Hydroxy-1-methyl-2-oxo-3-[(carboxymethyl)carbamoyl]-1,2-dihydro-1,6-naphthyridin-5-ylamino}acetic acid, Trifluoroacetic acid salt], the IC50 was < 50 nM. With Cn1c(=O)c(C(=O)NCC(=O)O)c(O)c2c(Br)nccc21 [Example 130, 2-(5-Bromo-4-hydroxy-1-methyl-2-oxo-1,2-dihydro-1,6-naphthyridine-3-carboxamido)acetic acid, Trifluoroacetic acid salt] the IC50 was < 50 nM. For Cn1c(=O)c(C(=O)NCC(=O)O)c(O)c2c(Cl)nccc21 [Example 131, 2-(5-Chloro-4-hydroxy-1-methyl-2-oxo-1,2-dihydro-1,6-naphthyridine-3-carboxamido)acetic acid], the IC50 was < 50 nM. Cn1c(=O)c(C(=O)NCC(=O)O)c(O)c2c(C(F)(F)F)nccc21 [Example 132, 2-(4-Hydroxy-1-methyl-2-oxo-5-(trifluoromethyl)-1,2-dihydro-1,6-naphthyridine-3-carboxamido)acetic acid, Trifluoroacetic acid salt] gave an IC50 of 50 to 100 nM. Cn1c(=O)c(C(=O)N[C@@H](CO)C(=O)O)c(O)c2cc(C3=CCCCC3)cnc21 [Example 133, (S)-2-(6-cyclohexenyl-4-hydroxy-1-methyl-2-oxo-1,2-dihydro-1,8-naphthyridine-3-carboxamido)-3-hydroxypropanoic acid] gave an IC50 of 500 to 1000 nM.
